How the values were obtained:
hemorrhagic shock = conditions: after hemorrhagic shock in rats; cited from earlier work
[1] = system: permanent (24-hour) focal ischemia; conditions: dosages tested 0.023 to 4.580 mg/kg; cited from earlier work
[2] = system: healthy volunteers exercising at altitude; assay: Crossover study in healthy volunteers exercising at simulated altitude of 15,000 feet (arterial blood gas, VO2 max, SpO2, lactate); format: in vivo, human
Description: This is a double-blind, randomized, placebo-controlled crossover study designed to investigate TSC's effects on oxygen enhancement using an experimental model to induce hypoxia in study participants. The primary endpoints measured in this study are maximal oxygen consumption and partial pressure of arterial blood oxygen in normal healthy volunteers subjected to incremental levels of physical exertion while exposed to hypoxic and hypobaric conditions at a simulated altitude of 15,000 feet above sea level. The secondary endpoints are to assess the effect of TSC on SpO2 and lactate.
A total of 30 healthy volunteers are enrolled in the trial with each subject serving as their own control by completing the experiment twice in a random, blinded order in the same day with a 3-hour rest and wash out period between experimental intervals. During one ascent, study subjects receive intravenous (IV) placebo administration and the other ascent the same subject receives a single IV dose of TSC at one of three dose levels (0.5 mg/kg, 1.5 mg/kg, or 2.5 mg/kg).
Primary analyses will be based on sequence matched changes in median PaO2 and median VO2 following a single administration of TSC versus placebo in subjects exposed to simulated altitude and undergoing exercise. This is a crossover design, repeated measures study where each subject will serve as their own control. Each subject will be randomized to a TSC dose and will also be randomized to their altitude exposure sequence on the day of testing.

[3] = system: patients with peripheral artery disease; conditions: 0.25 mg/kg to 2.0 mg/kg tested, cited from earlier work
[4] = system: healthy volunteers exercising at altitude; assay: Safety assessment in the altitude study; format: in vivo, human; conditions: all doses tested; no serious adverse events reported
Description: Adverse Events (AE), and Serious Adverse Events (SAE) will be reported per protocols. Laboratory values (complete blood count [CBC], basic metabolic panel [BMP] HIV, HBsAg, HCVAb), vital signs (blood pressure, heart rate, respiratory rate, temperature), and oxygen saturation (SpO2) will be monitored.

healthy volunteers = assay: Safety assessment in the tcpO2 study (adverse events, vital signs); format: in vivo, human
Protocol: Vital signs during the treatment and evaluation period are assessed at 10, 30, and 60 minutes post-study drug dosing. Adverse events are assessed throughout.

[5] = 2.5 mg/kg, end of exercise and 10 minutes post-exercise
[6] = change last exercise to 10-minutes post-exercise, 2.5 mg/kg vs other TSC doses and placebo
[7] = last exercise value minus baseline, 2.5 mg/kg vs other TSC doses and placebo
[8] = last exercise value, 2.5 mg/kg vs other TSC doses and placebo

**Q.** With `CC(/C=C/C=C(\C)C(=O)[O-])=C\C=C\C=C(C)\C=C\C=C(/C)C(=O)O.[Na+]` [TSC, trans sodium crocetinate] as the compound, how does the Whole-body oxygen consumption (hemorrhagic shock) read?
**A.** increase whole-body oxygen consumption

**Q.** And the “Dosage of maximal protective effect on cerebral infarct volume” value [1]?
**A.** 0.092 mg/kg

**Q.** What about the “Post-exercise recovery (pH, lactate, SpO2 and other markers)” value ([2]; 2.5 mg/kg, 10 minutes post-exercise versus last exercise measurements) of the same compound?
**A.** positive effect on post-exercise recovery

**Q.** What about the “Blood pH following exercise under hypoxic conditions” value [2, 5] of the same compound?
**A.** increase in pH

**Q.** And the “Lactate following exercise under hypoxic conditions” value [2, 5]?
**A.** decrease in lactate

**Q.** And the “Effects on pH at the end of the exercise period versus baseline, compared to placebo” value ([2]; 2.5 mg/kg, p<0.1)?
**A.** significantly different

**Q.** What about the “Intra-day maximal oxygen consumption tests” value ([2]; 0.5, 1.5, 2.5 mg/kg IV) of the same compound?
**A.** no observed changes

**Q.** What about the “Partial pressure of arterial blood oxygen” value ([2]; 0.5, 1.5, 2.5 mg/kg IV) of the same compound?
**A.** no observed changes

**Q.** And the “pH, least square mean” value ([2]; 10-minute post-exercise change from baseline (smallest reduction), 2.5 mg/kg vs other TSC doses and placebo, p=0.01 vs placebo)?
**A.** highest least square mean value

**Q.** And the “HCO3, least square mean” value ([2]; 10-minute post-exercise change from baseline, 2.5 mg/kg vs other TSC doses and placebo)?
**A.** highest least square mean value

**Q.** What about the “Lactic acid, least square mean” value ([2]; 10-minute post-exercise change from baseline, 2.5 mg/kg vs other TSC doses and placebo, p<0.05 vs 0.5 mg/kg) of the same compound?
**A.** lowest least square mean value

**Q.** And the “Oxygen saturation, least square mean” value ([2]; 10-minute post-exercise change from baseline, 2.5 mg/kg vs other TSC doses and placebo, p<0.05 vs 0.5 mg/kg, p=0.01 vs placebo)?
**A.** highest least square mean value

**Q.** What about the “PAO2, least square mean” value ([2]; 10-minute post-exercise change from baseline, 2.5 mg/kg vs other TSC doses and placebo, separates statistically from 0.5 mg/kg) of the same compound?
**A.** highest least square mean value

**Q.** What about the “pH, change” value ([2]; change last exercise to 10-minutes post-exercise, 2.5 mg/kg) of the same compound?
**A.** smallest change

**Q.** And the “Lactic acid, least square mean” value ([2]; change last exercise to 10-minutes post-exercise, 2.5 mg/kg and 1.5 mg/kg vs other TSC doses and placebo)?
**A.** lowest least square mean value

**Q.** And the “HCO3, least square mean” value [2, 6]?
**A.** highest least square mean value

**Q.** What about the “Oxygen saturation, least square mean” value [2, 6] of the same compound?
**A.** highest least square mean value

**Q.** And the “PACO2, least square mean” value [2, 6]?
**A.** highest least square mean value

**Q.** And the “PAO2, least square mean” value [2, 6]?
**A.** highest least square mean value

**Q.** And the “PAO2, least square mean” value ([2]; last exercise value minus baseline, 0.5 mg/kg TSC dose and placebo vs other TSC doses)?
**A.** lowest least square mean value

**Q.** What about the “HCO3, least square mean” value [2, 7] of the same compound?
**A.** highest least square mean value

**Q.** What about the “Oxygen saturation, least square mean” value [2, 7] of the same compound?
**A.** lowest least square mean value

**Q.** And the “VO2 maximum, least square mean” value [2, 7]?
**A.** lowest least square mean value

**Q.** What about the “pH, least square mean” value ([2]; last exercise value minus baseline, 2.5 mg/kg vs other TSC doses and placebo, separates statistically from 0.5 mg/kg) of the same compound?
**A.** highest least square mean value

**Q.** And the “Lactic acid, least square mean” value ([2]; last exercise value minus baseline, 2.5 mg/kg vs other TSC doses and placebo, trend lower with dose)?
**A.** lowest least square mean value

**Q.** What about the “PACO2, least square mean” value [2, 8] of the same compound?
**A.** highest least square mean value

**Q.** And the “pH, least square mean” value [2, 8]?
**A.** highest least square mean value

**Q.** And the “Lactic acid, least square mean” value ([2]; last exercise value, 2.5 mg/kg vs other TSC doses and placebo, p<0.1 vs 0.5 mg/kg, trend lower with dose)?
**A.** lowest least square mean value

**Q.** What about the “Oxygen saturation, least square mean” value ([2]; last exercise value, 2.5 mg/kg vs other TSC doses and placebo, p<0.1 vs 1.5 mg/kg) of the same compound?
**A.** lowest least square mean value

**Q.** And the “HCO3, least square mean” value ([2]; last exercise value, 2.5 mg/kg vs other TSC doses and placebo, separates statistically from 0.5 mg/kg)?
**A.** highest least square mean value

**Q.** And the “PAO2, least square mean” value ([2]; last exercise value, 2.5 mg/kg vs other TSC doses and placebo, separates statistically from 1.5 mg/kg)?
**A.** lowest least square mean value

**Q.** And the “Sequence effect in subjects who received TSC in the first ascent of the day” value ([2]; pH change from baseline, p<0.05 placebo first vs second)?
**A.** carry-over

**Q.** What about the “Oxygen saturation, least square mean” value ([2]; post-exercise value, 2.5 mg/kg vs other TSC doses and placebo) of the same compound?
**A.** highest least square mean value

**Q.** And the “PACO2, least square mean” value ([2]; post-exercise value, 2.5 mg/kg vs other TSC doses and placebo, p<0.05 vs 0.5 mg/kg)?
**A.** highest least square mean value

**Q.** And the “Lactic acid, least square mean” value ([2]; post-exercise value, 2.5 mg/kg vs other TSC doses and placebo, p<0.05 vs 0.5 mg/kg, p=0.01 vs placebo)?
**A.** lowest least square mean value

**Q.** And the “pH, least square mean” value ([2]; post-exercise value, 2.5 mg/kg vs other TSC doses and placebo, separates from 0.5 mg/kg, p=0.01 vs placebo)?
**A.** highest least square mean value

**Q.** And the “HCO3, least square mean” value ([2]; post-exercise value, 2.5 mg/kg vs other TSC doses and placebo, separates statistically from 0.5 mg/kg)?
**A.** highest least square mean value

**Q.** And the “Dose with greatest increase in claudication onset time” value [3]?
**A.** 0.25 mg/kg

**Q.** And the “Dosing arm with peak increase in peak walking time” value ([3]; after 5 days of treatment)?
**A.** 1.50 mg/kg

**Q.** What about the Safety and tolerability [4] of the same compound?
**A.** safe and well tolerated at all doses tested

**Q.** What about the “Serious adverse events or withdrawals” value (healthy volunteers; 30 subjects) of the same compound?
**A.** No subjects experience a serious adverse event

**Q.** What about the “Number of treatment-emergent adverse events determined to be drug-related” value (healthy volunteers; of nine events, all mild in intensity) of the same compound?
**A.** five

**Q.** And the “Subjects with treatment-emergent adverse events” value (healthy volunteers; seven of the 30 subjects (TSC and placebo cohorts), nine events overall)?
**A.** 23.3%

**Q.** What about the Safety and tolerability (healthy volunteers; single IV bolus 0.5-2.5 mg/kg) of the same compound?
**A.** safe and well tolerated

**Q.** What about the “Serious adverse events or dose-limiting toxicities” value (healthy volunteers; up to and including the 2.5 mg/kg iv dose) of the same compound?
**A.** no serious adverse events or dose-limiting toxicities

From patent US20240316000A1, “METHODS OF TREATMENT” (DIFFUSION PHARMACEUTICALS LLC, priority 2021, published 2024)
